For this experiment, the system named is calcium channel (e.g., L-type, N-type, etc.). In words: HEK assay, whole-cell patch clamp of transiently transfected HEK-293T/17 cells. Particulars: whole-cell voltage clamp, holding potential −100 mV. The class given is cell-based. The procedure:
HEK-293T/17 cells are transiently transfected in a similar manner as described in FuGENE 6 Package Insert Version 7, April 2002, Roche Applied Science, Indianapolis, Ind. The cells are plated at 2.5×10^5 cells in 2 mL in a 6-well plate in incubator for one night and achieve a 30˜40% confluence. In a small sterile tube, add sufficient serum-free medium as diluent for FuGENE Transfection Reagent (Roche Applied Science, Indianapolis, Ind.), to a total volume of 100 μL. Add 3 μL of FuGENE 6 Reagent directly into this medium. The mixture is tapped gently to mix. 2 μg of DNA solution (0.8-2.0 μg/μL) is added to the prediluted FuGENE 6 Reagent from above. The DNA/Fugene 6 mixture is gently pipeted to mix the contents and incubated for about 15 minutes at room temperature. The complex mixture is then added to the HEK-293T/17 cells, distributing it around the well, and swirled to ensure even dispersal. The cells are returned to the incubator for 24 hrs. The transfected cells are then replated at density 2.5×10^5 in a 35 mm dish with 5 glass coverslips and grow in low serum (1%) media for 24 hrs. Coverslips with isolated cells are then transferred into chamber and calcium channel (e.g., L-type, N-type, etc.) current or other currents for counter screening are recorded from the transiently transfected HEK-293T/17 cells. […]

As for `CN(Cc1nc(CNc2ccc(F)cc2)cn1-c1ccc(Cl)cc1)c1ccc(F)cc1` [Compound 5], the IC50 worked out at 135 nM.
To `CN(Cc1nc(CN2CCCC2)cn1-c1ccc(Cl)cc1)c1ccc(F)cc1` [Compound 6] belongs 2690 nM.

Source of the values: US20070197619A1, “Ion Channel Modulators” (priority 2004, published 2007).
